This note sets out measurements from ChEMBL document CHEMBL1149409, “Inhibition of GABA shunt enzymes' activity by 4-hydroxybenzaldehyde derivatives” (Bioorg Med Chem Lett, 2006).

Test [1] deals with 4-aminobutyrate aminotransferase, mitochondrial (Homo sapiens, UniProt P80404). The test is described as follows: Inhibitory activity against GABAT.
The target of test [2] is T1, Succinate-semialdehyde dehydrogenase, mitochondrial (Homo sapiens, UniProt P51649).
T1 sequence (P51649 whole entry): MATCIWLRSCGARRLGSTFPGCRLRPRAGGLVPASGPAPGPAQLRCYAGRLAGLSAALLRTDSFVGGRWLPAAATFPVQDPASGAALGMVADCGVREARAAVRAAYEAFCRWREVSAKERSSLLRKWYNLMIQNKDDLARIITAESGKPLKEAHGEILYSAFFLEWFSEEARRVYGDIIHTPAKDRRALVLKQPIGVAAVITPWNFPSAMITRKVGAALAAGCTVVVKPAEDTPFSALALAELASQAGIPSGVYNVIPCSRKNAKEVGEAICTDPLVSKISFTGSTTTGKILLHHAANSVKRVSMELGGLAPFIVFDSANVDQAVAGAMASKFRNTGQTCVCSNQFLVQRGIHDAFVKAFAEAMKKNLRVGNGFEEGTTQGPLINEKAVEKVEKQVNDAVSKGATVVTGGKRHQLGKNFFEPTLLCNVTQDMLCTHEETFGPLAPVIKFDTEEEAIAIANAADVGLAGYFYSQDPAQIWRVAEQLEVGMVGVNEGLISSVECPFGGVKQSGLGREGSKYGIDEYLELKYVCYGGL
Put plainly: Inhibitory activity against SSADH.

4-aminobutyrate aminotransferase, mitochondrial, sequence (P80404 whole entry): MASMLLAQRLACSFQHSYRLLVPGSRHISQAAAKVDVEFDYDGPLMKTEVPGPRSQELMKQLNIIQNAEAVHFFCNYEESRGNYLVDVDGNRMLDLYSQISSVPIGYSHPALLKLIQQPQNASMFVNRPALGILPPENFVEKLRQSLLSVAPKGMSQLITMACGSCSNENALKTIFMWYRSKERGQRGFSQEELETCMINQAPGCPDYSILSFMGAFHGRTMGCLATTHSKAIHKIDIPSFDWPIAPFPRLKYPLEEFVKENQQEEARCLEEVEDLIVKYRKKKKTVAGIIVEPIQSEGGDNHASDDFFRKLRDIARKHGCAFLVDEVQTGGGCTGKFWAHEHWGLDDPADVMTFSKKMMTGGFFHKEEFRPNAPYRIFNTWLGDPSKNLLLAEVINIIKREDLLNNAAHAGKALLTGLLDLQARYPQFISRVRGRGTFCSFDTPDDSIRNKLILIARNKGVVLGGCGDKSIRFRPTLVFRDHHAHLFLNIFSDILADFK

Take `O=Cc1ccc(O)cc1` [4-HYDROXYBENZALDEHYDE]: the figures for the concentration for half-maximal inhibition (IC50) in test [1] and in test [2] were 16.5 µM and 24.7 µM, respectively.

As to `CCC(=O)c1ccc(O)cc1` [PAROXYPROPIONE], the values for the IC50 in test [1] and in test [2] were 176 µM and 293 µM, respectively.

On to `C=CC(=O)c1ccc(O)cc1`, for which the IC50 in test [1] was 5.48 µM; in test [2], 0.35 µM.

`OCc1ccc(O)cc1` [PARAHYDROXYBENZYL ALCOHOL]: the IC50 in test [1] and in test [2] was more than 1000 µM throughout.

For the molecule `O=Cc1ccc(O[C@@H]2O[C@H](CO)[C@@H](O)[C@@H](O)[C@H]2O)cc1` [HELICIDE], the IC50 in test [1] and in test [2] was more than 1000 µM throughout.

For `COc1cc(/C=N/O)ccc1O`, the IC50 in test [1] and in test [2] was more than 1000 µM each time.

Take `Nc1ccc(C(=O)O)cc1` [AMINOBENZOIC ACID]: the IC50 in test [1] and in test [2] was more than 1000 µM in each case.

Consider `O=Cc1ccc(O)c([N+](=O)[O-])c1`, for which the IC50 in test [1] was 15.5 µM; in test [2], 33.1 µM.

On to `CC(=O)c1ccc(O)cc1` [4-HYDROXYACETOPHENONE], for which the IC50 in test [1] was 188 µM; in test [2], 166 µM.

Turning to `COc1ccc(C=O)cc1` [ANISALDEHYDE], the IC50 in test [1] and in test [2] was more than 1000 µM throughout.

For `COc1cc(C=O)ccc1O` [VANILLIN], the values for the IC50 in test [1] and in test [2] were 17.1 µM and 15.6 µM, respectively.

As for `O/N=C/c1ccc(O)cc1`, the half-inhibitory concentration (IC50) in test [1] and in test [2] was more than 1000 µM each time.

Consider `OCc1ccc(O[C@@H]2O[C@H](CO)[C@@H](O)[C@H](O)[C@H]2O)cc1` [GASTRODIN], for which the half-inhibitory concentration (IC50) in test [1] and in test [2] was more than 1000 µM in each case.

As to `NCc1ccc(O)cc1`, the IC50 in test [1] is 15.4 µM; in test [2] it was more than 1000 µM.

In the case of `O=C(O)c1ccc(O)cc1` [PARABEN], the IC50 in test [1] and in test [2] was more than 1000 µM throughout.
